PMC11946908, “Plasmodium blood stage development requires the chromatin remodeller Snf2L” (Nature, 2025)

Legend:
Format in all cases: biochemical
PfSnf2L [1] = target: T1, PfSnf2L (Plasmodium falciparum, UniProt Q8IIW0); test: […]-gamma-ATP hydrolysis, thin-layer chromatography; details: 500 µM ATP, 1.5 mM MgCl2, pH 7.6, 30 °C, with or without mononucleosomes
T1 construct: gene PF3D7_1104200; amino acids 250-1426, C-terminal 10xHis tag, baculovirus, Sf21 insect cells
T1 sequence (Q8IIW0 250-1426): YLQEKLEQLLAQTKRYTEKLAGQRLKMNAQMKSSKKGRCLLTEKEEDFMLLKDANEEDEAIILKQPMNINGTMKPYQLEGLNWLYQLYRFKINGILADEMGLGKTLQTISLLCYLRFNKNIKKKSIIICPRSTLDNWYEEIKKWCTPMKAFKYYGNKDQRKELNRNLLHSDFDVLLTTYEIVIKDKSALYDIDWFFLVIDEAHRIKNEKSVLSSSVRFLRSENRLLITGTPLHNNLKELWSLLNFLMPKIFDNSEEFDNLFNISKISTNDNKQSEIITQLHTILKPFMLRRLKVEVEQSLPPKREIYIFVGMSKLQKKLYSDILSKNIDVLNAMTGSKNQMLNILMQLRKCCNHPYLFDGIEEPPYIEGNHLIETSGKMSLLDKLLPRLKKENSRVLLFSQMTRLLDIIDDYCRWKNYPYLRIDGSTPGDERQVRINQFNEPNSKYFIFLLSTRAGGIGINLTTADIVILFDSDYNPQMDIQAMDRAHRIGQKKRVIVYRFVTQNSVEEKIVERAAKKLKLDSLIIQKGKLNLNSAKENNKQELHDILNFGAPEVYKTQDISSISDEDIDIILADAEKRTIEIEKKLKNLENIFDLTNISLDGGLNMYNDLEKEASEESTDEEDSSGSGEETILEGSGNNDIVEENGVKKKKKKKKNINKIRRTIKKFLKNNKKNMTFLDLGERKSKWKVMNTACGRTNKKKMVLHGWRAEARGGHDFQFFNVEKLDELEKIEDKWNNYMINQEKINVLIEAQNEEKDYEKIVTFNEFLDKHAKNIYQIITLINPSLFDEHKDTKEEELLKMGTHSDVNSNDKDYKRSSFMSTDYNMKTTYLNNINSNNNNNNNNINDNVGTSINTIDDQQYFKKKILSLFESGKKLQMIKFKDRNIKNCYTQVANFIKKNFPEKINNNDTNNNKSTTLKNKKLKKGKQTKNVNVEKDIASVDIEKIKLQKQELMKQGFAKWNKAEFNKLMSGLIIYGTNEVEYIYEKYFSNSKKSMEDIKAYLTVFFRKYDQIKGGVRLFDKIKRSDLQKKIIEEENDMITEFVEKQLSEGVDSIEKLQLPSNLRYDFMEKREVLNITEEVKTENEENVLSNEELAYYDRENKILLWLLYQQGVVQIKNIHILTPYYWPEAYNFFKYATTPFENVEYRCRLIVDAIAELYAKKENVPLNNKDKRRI

HsSNF2L = target: T2, HsSNF2L (Homo sapiens, UniProt P28370); test: as above; details: 500 µM ATP, 1.5 mM MgCl2, pH 7.6, 30 °C, with or without mononucleosomes
T2 construct: gene SMARCA1; 6xHis tag, baculovirus, Sf21 insect cells
T2 sequence (P28370 whole entry): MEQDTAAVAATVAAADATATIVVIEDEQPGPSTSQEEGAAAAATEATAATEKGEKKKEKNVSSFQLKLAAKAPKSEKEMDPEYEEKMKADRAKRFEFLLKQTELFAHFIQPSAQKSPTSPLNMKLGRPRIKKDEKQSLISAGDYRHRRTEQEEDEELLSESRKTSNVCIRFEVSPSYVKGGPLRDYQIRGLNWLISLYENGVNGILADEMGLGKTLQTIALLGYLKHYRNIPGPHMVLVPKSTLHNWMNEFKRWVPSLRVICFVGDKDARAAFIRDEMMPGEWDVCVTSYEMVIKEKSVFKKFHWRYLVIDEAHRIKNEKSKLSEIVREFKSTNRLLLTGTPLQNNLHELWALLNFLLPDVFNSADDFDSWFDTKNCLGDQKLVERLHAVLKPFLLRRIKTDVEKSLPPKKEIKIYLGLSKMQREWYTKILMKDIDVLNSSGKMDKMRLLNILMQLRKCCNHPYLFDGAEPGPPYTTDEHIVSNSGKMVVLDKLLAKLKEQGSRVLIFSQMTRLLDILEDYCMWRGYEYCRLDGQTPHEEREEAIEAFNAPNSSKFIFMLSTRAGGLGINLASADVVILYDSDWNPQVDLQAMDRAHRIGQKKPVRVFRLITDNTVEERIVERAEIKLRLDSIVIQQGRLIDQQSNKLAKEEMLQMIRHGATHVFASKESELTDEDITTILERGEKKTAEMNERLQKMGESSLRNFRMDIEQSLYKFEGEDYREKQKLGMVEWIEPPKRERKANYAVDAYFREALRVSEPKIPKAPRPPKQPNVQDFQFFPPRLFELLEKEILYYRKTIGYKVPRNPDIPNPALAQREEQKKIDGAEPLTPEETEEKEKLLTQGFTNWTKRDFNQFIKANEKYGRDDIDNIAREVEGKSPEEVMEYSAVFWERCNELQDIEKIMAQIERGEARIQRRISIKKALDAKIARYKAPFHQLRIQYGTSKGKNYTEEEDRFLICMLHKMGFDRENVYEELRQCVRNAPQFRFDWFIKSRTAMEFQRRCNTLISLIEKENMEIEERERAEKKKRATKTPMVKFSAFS

PfSnf2L [2] = target: T1, PfSnf2L; test: ADP biosensor (TMR-ParM) ATPase assay, single dose response; details: 0.4 µM enzyme, 125 µM ATP, plasmid DNA, 5 µM H4 peptide, 1.5 mM MgCl2, pH 8.6, 28 °C; allosteric

## Nc1ncnc2c1ncn2[C@@H]1O[C@H](COP(=O)(O)OP(=O)(O)OP(=O)(O)O)[C@@H](O)[C@H]1O [ATP]
PfSnf2L [1]
  32P-gamma-ATP hydrolysis, thin-layer chromatography: The non-stimulated or nucleosome-stimulated ATP hydrolysis rate of PfSnf2L/HsSNF2L
HsSNF2L
  32P-gamma-ATP hydrolysis, thin-layer chromatography: The non-stimulated or nucleosome-stimulated ATP hydrolysis rate of PfSnf2L/HsSNF2L

## CCCCCCCCCCCCCCCC[n+]1ccn(Cc2ccccc2)c1C [NH125]
PfSnf2L [2]
  ADP biosensor (TMR-ParM) ATPase assay, single dose response: ATP hydrolysis kinetic of PfSnf2L in presence of NH125 in varying concentrations
